From paper doi:10.1101/2022.02.04.479214v1 (biorxiv, 2022)

Key:
Assay in all cases: CYP activity inhibition in microsomes
Type in all cases: biochemical
Conditions in all cases: microsomes with NADPH; direct inhibition
[1] = target: CYP2C9 (Homo sapiens, UniProt P11712)
[2] = target: CYP3A4 (Homo sapiens, UniProt P08684)
[3] = target: T1, CYP1A2 (Homo sapiens, UniProt P05177)
T1 sequence (P05177 2-516): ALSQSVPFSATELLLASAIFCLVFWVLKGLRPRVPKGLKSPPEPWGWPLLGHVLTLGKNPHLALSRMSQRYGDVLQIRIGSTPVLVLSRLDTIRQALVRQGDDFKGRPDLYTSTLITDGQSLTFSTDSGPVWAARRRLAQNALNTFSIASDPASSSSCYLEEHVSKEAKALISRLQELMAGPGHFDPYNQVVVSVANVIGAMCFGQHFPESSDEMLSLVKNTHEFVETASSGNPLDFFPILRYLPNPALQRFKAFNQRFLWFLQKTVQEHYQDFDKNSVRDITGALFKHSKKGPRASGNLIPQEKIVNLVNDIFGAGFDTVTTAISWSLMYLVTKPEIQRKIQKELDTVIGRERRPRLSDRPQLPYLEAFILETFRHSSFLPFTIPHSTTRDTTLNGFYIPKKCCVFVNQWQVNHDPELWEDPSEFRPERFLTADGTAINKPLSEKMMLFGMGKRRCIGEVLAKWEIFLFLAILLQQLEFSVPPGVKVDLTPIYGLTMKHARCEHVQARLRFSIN

[4] = target: CYP2D6 (Homo sapiens, UniProt P10635)
Chain of CYP2D6 (P10635 whole entry): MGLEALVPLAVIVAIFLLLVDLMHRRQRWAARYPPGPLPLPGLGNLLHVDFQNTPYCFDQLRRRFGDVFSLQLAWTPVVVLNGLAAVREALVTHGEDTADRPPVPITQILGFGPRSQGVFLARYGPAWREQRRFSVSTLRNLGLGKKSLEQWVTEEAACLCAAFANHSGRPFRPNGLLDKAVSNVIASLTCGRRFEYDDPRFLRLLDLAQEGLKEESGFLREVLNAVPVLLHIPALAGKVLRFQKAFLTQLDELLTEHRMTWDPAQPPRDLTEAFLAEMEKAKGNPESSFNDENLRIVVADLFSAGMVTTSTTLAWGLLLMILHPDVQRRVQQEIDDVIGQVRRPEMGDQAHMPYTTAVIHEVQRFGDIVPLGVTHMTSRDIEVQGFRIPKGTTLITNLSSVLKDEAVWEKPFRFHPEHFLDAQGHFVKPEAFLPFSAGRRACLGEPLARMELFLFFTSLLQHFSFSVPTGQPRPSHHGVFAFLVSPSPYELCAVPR

[5] = target: CYP2C19 (Homo sapiens, UniProt P33261)
Chain of CYP2C19 (P33261 whole entry): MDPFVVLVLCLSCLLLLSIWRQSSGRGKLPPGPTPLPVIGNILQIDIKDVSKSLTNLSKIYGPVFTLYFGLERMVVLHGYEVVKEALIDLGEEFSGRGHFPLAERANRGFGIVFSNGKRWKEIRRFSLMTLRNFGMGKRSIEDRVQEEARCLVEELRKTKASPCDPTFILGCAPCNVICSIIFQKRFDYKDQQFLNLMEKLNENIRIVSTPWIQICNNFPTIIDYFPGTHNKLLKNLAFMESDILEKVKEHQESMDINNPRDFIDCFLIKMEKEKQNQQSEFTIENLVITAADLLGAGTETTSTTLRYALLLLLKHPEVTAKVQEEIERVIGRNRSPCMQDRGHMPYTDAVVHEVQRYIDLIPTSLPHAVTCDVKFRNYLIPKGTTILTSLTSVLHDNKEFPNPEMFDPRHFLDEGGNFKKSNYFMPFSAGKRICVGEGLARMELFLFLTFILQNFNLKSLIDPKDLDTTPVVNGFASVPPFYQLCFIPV

Measured: IC50

Chain of CYP3A4 (P08684 2-503): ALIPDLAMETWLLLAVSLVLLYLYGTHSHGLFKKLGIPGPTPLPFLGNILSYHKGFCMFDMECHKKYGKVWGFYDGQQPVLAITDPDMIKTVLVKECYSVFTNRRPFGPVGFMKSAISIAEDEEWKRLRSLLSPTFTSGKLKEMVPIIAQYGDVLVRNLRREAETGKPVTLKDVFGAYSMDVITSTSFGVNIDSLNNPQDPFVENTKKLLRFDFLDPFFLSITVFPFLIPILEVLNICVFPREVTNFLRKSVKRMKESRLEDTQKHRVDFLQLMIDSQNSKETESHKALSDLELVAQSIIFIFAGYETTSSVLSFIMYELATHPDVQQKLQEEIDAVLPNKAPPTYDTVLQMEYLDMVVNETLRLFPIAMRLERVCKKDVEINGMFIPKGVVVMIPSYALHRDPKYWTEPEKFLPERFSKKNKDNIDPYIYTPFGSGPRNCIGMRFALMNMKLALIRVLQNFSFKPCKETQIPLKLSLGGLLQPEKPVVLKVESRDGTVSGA
Chain of CYP2C9 (P11712 whole entry): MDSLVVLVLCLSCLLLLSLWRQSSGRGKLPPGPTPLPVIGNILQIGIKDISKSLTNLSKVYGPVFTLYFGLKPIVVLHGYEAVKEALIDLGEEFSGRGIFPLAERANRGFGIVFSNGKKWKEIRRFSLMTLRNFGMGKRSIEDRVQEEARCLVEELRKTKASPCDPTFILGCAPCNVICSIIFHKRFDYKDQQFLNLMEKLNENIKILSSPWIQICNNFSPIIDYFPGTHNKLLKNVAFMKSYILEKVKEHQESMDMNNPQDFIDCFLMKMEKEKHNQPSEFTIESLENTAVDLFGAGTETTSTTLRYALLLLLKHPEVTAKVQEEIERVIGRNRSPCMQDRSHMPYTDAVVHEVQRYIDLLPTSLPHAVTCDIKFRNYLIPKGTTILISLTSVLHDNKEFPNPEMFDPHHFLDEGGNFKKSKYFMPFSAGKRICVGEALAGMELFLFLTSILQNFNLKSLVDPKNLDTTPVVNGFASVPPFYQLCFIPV

Cc1cccc(OC2CCN(Cc3cc(=O)[nH]c(=O)[nH]3)CC2)c1C [GSK2556286]
> 25 µM: all assays above
